# Measured values: PMC5601486, “Identification of 4-phenylquinolin-2(1H)-one as a specific allosteric inhibitor of Akt” (Scientific Reports, 2017)
# Like-named read-outs stand apart in the source and are kept apart here.
# Columns and labels:
# Akt S473 phosphorylation = assay: pS473-Akt HTRF assay; type: cell-based, Mouse; conditions: Mus musculus, N2a, Neuro 2A cells
# Procedure: Neuro 2A cells were seeded (4,000 cells/well) in 4 µL of DMEM with 0.5% FBS and 1x Penicillin/Streptomycin in white solid bottom tissue-culture treated 1536-well plates (Greiner, 789173-F) with MultiDrop Combi Dispenser (Thermo Scientific). The cells were incubated for 24 h at 37 °C, 5% CO2, 95% humidity. Twenty-three nL of tested compounds were transferred to each well with an automated pin-tool station (Kalypsys). Following incubation for 15 min at 37 °C, 0.5 µL IGF (500 ng/mL of final concentration) was added and incubated for additional 40 min at 37 °C. After the addition of 1.5 µL 4x lysis buffer and 15-min incubation at room temperature (25 °C), 2 µL of HTRF® conjugated antibodies (fluorophore d2 conjugated anti-Akt monoclonal antibody and Europium^3+ cryptate-labeled anti-pS473-Akt monoclonal antibody, obtained from CisBio, 1:80 dilution) were added with BioRAPTR FRD™ (Beckman Coulter). The plates were incubated at room temperature for 20 h. The signal was measured by EnVision Multilabel Plate Reader (PerkinElmer) with excitation at 330 nm, emission at 620 nm (donor) and 665 nm (acceptor). Results were calculated and analyzed in a format of the ratio 665 nm/620 nm multiplied by 10^4.
# Relative activity was calculated by normalizing each HTRF signal from each sample well to the mean HTRF signal from the DMSO-only control wells.
# The Library of Pharmacologically Active Compounds (LOPAC, 1280 compounds) and the Molecular Library Small Molecular Repository Library (MLSMR, 373,868 compounds) were obtained from Sigma-Aldrich.
# Quantitative HTS (qHTS) and curve response class classification
# The qHTS screen was performed as described previously1. Each compound was titrated in seven concentrations. The final concentrations of the compounds assayed ranged from 4.9 nM to 76.6 µM. The curve response classifications (CRC), which can be used to depict potency, efficacy and reliability of the data, and to estimate an IC50 value, were determined by a customized software2. […]
# Sigma-Aldrich) and the basal response (0% inhibition) was set to the DMSO control.
# Efficacy of a compound refers to the highest response normalized to the maximal response of LY. The CRCs were grouped into 4 categories. Class 1 are well-fit and have both upper and lower asymptotes with efficacy greater than 30%
# (Class1.1, >80% efficacy; Class 1.2; 30-80% efficacy). Class 2 are incomplete with only one asy mptote (Class 2.1, > 80% efficacy; Class 2.2, 30-80% % efficacy). Class 3 display activity only at the highest concentrations and efficacy >30%. Class 4 are with low efficacy (<30%) or no response and considered inactive3.
# Neuro 2A cells = assay: MTS cell proliferation assay; type: cell-based, Mouse; conditions: 1 day
# Procedure: (§1) Neuro 2A cells or NIH/3T3 cells (ATCC) were seeded at various confluency in a 96-well plate in 100 µL DMEM containing 5% FBS or 10% FBS with 1% penicillin streptomucin, respectively, at 37 °C in a 5% CO2 and 95% humidity incubator for 18 hr. To each well 1 µL inhibitor with various concentrations or DMSO was added. The final concentrations of the tested inhibitors were 0, 5, 10, 20, 40 and 80 µM for G7 and LY, and 0, 5, 10, 20, 40 and 80 nM for Torin1, based on their respective IC50 values (~µM for G7 and LY and ~ nM for Torin 1). After 24 hr, 20 µL of CellTiter 96® AQueous One Solution Reagent (Promega) were added. The plate was placed in the incubator for 2 h and absorbance at 490 nm was measured with a Synergy HT Microplate Reader (Bio-Tek).
# LNCaP cells = assay: MTS cell proliferation assay; type: cell-based; conditions: 1 day, 40% confluent
# Procedure: as §1
# Fig. S8. Effect of G7 on proliferation of LNCaP cells. Cells that were 40% confluent in RPMI-1640 medium containing 10% FBS were treated with inhibitors for 1 day and subjected to MTS assays. *, µM for both G7 and LY and nM for Torin1. Data represent means ± SEM (n=3). G7, 4-phenylquinolin-2(1H)-one, LY, LY294002.
# mTORC2 = tested on: mTORC2; design: method as in PMID 22614243; conditions: cited from earlier work
# Akt = target: T1, Akt (Mus musculus, UniProt P31750); assay: Akt activity assay (immunoprecipitated Akt, K-Lisa); type: cell-based; conditions: LY at 125 µM
# T1 construct: subjected to immunoprecipitation using protein G-plus and anti-AKT PH domain (Millipore); endogenous in cells; host or cells: Neuro 2A (mouse neuroblastoma), IGF-stimulated
# Procedure: After overnight starvation by incubating with serum-free DMEM, Neuro 2A cells were treated with compound G7 at various concentrations for 30 min at room temperature followed by stimulation with IGF (final concentration of 100 ng/mL) for 30 min. Cells were lysed with lysis buffer containing 1% Triton X-100 and protease/phosphatase inhibitors (Cell Signaling Technology) and subjected to immunoprecipitation using protein G-plus and anti-AKT PH domain (Millipore). The activity of the immunopurified Akt was evaluated using a K-Lisa Akt activity kit (Millipore) in accordance with manufacturer’s instructions. The activity was normalized to Akt level in the immunoprecipitates determined by quantitative western blot analysis.
# T1 sequence (P31750 whole entry, the tested form may be a part): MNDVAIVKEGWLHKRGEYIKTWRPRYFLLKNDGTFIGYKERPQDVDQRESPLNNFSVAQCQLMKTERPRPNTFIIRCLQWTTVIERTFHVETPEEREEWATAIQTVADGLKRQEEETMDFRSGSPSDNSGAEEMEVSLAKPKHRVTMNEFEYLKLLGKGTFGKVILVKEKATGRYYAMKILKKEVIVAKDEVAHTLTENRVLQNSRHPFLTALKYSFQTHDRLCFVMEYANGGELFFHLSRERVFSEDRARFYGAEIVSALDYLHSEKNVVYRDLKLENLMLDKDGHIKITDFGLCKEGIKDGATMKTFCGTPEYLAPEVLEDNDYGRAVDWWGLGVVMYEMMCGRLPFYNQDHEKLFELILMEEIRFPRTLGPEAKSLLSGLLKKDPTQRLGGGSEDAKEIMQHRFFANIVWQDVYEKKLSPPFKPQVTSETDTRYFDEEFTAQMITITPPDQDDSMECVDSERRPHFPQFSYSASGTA
compound,measurement,setting,value
"CCC(=O)N1CCN(c2ccc(-n3c(=O)ccc4cnc5ccc(-c6cnc7ccccc7c6)cc5c43)cc2C(F)(F)F)CC1 [Torin 1, 1-(4-(4-Propionylpiperazin-1-yl)-3-(trifluoromethyl)phenyl)-9-(quinolin-3-yl)benzo[h][1,6]naphthyridin-2(1H)-one]",IC50,"Akt S473 phosphorylation; 384-well format, read-out: IC50",20 nM
same,IC50,"Akt S473 phosphorylation; 1536-well, inhibitor 15 min before IGF, read-out: apparent IC50",~20 nM
same,proliferation of Neuro 2A cells,Neuro 2A cells,inhibited the proliferation
same,proliferation of LNCaP prostate cancer cells,LNCaP cells,inhibited the proliferation
NC1(c2ccc(-c3nc4ccn5c(=O)[nH]nc5c4cc3-c3ccccc3)cc2)CCC1 [MK-2206],effect on mTORC2 activity,mTORC2,decrease mTORC2 activity
"O=c1cc(N2CCOCC2)oc2c(-c3ccccc3)cccc12 [LY294002, 2-(4-morpholinyl)-8-phenyl-4H-1-benzopyran-4-one]",IC50,"Akt S473 phosphorylation; inhibitor 15 min before IGF, read-out: IC50",25000 nM
same,inhibition at 125 µM,Akt,~90%
same,proliferation of Neuro 2A cells,Neuro 2A cells,inhibited the proliferation
same,proliferation of LNCaP prostate cancer cells,LNCaP cells,inhibited the proliferation
